Data: patent US10426850B2, “Collagen mimetic peptides for targeting collagen strands for in vitro and in vivo imaging and therapeutic use” (The Johns Hopkins University, priority 2011, dated 2019)
“Also recorded” adds a separate entry of the source.

Legend:
[1] = biological target: T1, type I collagen films (fibrillar collagen) (Rattus norvegicus, UniProt P02454+P02466); assay: Photo-triggered CMP binding assay on collagen films
T1 construct: Collagen solution (200 μL, 3.71 mg/mL, type I rat tail, BD Science); purchased BD Science; host or cells: rat tail
T1 sequence (P02454 152-1207 limits assumed): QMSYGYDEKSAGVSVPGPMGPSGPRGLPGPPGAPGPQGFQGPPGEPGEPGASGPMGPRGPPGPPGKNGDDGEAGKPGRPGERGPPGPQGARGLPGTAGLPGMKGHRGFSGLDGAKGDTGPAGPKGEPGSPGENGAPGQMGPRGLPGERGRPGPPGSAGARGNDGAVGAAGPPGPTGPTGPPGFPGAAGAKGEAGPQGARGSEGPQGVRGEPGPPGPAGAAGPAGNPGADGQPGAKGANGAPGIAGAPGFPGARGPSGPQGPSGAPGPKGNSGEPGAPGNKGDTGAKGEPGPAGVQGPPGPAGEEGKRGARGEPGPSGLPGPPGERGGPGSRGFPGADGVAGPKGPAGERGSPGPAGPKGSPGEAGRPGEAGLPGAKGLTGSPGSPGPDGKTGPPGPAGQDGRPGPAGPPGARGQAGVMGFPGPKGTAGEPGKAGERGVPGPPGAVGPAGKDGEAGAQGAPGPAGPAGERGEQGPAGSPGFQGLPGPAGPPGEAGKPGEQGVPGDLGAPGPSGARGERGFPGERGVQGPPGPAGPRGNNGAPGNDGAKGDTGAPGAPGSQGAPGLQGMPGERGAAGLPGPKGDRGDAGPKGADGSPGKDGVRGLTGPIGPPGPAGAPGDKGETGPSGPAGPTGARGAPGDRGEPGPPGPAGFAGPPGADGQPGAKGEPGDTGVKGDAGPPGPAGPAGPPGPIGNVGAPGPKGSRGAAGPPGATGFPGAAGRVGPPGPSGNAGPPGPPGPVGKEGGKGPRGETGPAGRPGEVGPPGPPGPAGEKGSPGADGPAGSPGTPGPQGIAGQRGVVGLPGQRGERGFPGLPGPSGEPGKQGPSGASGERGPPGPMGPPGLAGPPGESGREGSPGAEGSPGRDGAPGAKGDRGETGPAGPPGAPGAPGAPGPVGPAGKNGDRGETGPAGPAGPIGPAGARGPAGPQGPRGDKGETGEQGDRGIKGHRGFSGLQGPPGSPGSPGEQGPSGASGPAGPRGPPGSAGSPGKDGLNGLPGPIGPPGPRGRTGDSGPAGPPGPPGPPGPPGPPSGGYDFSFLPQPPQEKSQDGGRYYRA
T1 sequence (P02466 86-1125 limits assumed): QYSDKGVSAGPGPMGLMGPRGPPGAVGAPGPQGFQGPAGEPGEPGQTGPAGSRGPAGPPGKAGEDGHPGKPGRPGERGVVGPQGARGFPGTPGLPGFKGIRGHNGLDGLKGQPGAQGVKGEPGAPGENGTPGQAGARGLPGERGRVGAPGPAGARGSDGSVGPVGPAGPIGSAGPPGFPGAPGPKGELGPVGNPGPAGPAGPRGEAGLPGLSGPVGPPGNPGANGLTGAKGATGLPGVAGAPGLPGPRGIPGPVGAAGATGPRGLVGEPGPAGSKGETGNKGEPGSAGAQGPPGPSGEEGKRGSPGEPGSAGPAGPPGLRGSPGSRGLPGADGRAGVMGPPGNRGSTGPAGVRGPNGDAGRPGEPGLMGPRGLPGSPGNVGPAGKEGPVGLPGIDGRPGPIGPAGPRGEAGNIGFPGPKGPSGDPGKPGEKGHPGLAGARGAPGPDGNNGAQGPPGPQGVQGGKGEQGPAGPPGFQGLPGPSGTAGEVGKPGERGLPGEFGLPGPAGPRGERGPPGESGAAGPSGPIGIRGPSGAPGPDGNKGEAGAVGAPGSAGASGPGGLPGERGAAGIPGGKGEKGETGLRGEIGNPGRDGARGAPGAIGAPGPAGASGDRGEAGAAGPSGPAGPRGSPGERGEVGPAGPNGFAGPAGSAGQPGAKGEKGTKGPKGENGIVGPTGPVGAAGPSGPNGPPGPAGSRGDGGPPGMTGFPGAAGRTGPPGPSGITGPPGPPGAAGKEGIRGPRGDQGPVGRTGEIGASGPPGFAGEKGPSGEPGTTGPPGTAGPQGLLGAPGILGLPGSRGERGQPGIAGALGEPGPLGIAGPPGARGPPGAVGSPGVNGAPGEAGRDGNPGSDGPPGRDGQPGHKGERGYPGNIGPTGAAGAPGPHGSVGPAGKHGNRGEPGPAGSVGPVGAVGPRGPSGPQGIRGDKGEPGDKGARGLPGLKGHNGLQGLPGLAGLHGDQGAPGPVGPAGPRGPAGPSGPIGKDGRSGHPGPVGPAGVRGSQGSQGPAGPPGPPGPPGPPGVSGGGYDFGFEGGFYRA
Experimental: Collagen/gelatin binding assays. Collagen solution (200 μL, 3.71 mg/mL, type I rat tail, BD Science) in 0.02 N acetic acid was added to each well of a 96-well black/clear-bottom plate (Costar) and air-dried. To make gelatin films, the same collagen solution was denatured at 70° C. for 15 minutes before applying to the well. The dried films were neutralized and washed with 1×PBS buffer (pH 7.4) and deionized water. PBS solution of carboxyfluorescein-labeled caged CMP (40 μL, 50 μM, unless indicated otherwise) pre-equilibrated at 4° C. was added onto each reconstituted collagen or gelatin film and exposed to 365 nm UV light (10 mW/cm^2, from mercury arc lamp) for 11 minutes on ice. Wells for the UV-negative control groups were covered with aluminum foil to block UV exposure. After incubation at 4° C. for over 3 hours (unless indicated otherwise), the unbound materials were removed by rinsing with PBS buffer and deionized water. The films were allowed to dry in dark, after which the fluorescence (ex: 489 nm, em: 533 nm) was measured with a SpectraMax Gemini XPS microplate reader (Molecular Devices). Each binding experiment was done in triplicate.

[2] = test system: type I and type II gelatin; assay: CMP binding assay on thermally-denatured type I and II collagens (coatings); design: species or system rat (type I), bovine (type II); conditions: UV-exposed, 20 μM, room temperature
Experimental: CMP binding assay on thermally-denatured type I and II collagens. A solid-state protein coating instead of a reconstituted gelatin film (as described above) was chosen as the binding substrate to avoid the collagen type dependent film instability. Wells of nunc black 96-well maxisorp plate (Thermo Scientific) were charged with 50 μL of 1×PBS buffer containing 100 μg/mL type I or type II (bovine, BD Science) collagen which was denatured by 10 minutes of incubation at 75° C. After 1 hour, the coating solutions were removed and wells were washed with 1×PBS buffer containing 1 mg/mL BSA (PBSB), and blocked with 50 mg/mL BSA in PBS for 1 hour, followed by additional wash with PBSB. CF^NB(GPO)9 (SEQ ID NO: 4) or CF^SG9P9O9 (SEQ ID NO: 5) solution (20 μM, 50 μL in PBS) was added to each well, exposed to UV light for 10 min, and incubated at room temperature for 2.5 hours. Wells were washed three times with 100 μL of PBSB followed by fluorescence (ex: 489 nm, em: 533 nm) reading with a SpectraMax M-2 microplate reader (Molecular Devices). Each binding experiment was done in triplicate. The background fluorescence of empty wells was subtracted from the raw fluorescence data.

[3] = Circular dichroism spectra and thermal melting of CMPs; format: physicochemical
Experimental: Circular dichroism spectroscopy. CD spectra were collected on JASCO 715 spectrophotometer equipped with a JASCO PTC-348 WI temperature controller and quartz cells (0.1 mm path length). CMP solutions (320 μL, 150 μM in 1×PBS) were stored at 4° C. for at least 24 hours before measurement. For photo-decaging, samples were exposed to 365 nm UV light for at least 30 minutes before the 4° C. incubation. The thermal melting studies were performed by measuring the ellipticity at 225 nm with 60° C./hr heating rate. Raw CD signal was normalized to mean residue ellipticity based on the peptide's length and concentration (Biopolymers 95:94-104 (2011)). Melting temperatures (Tm) were determined by fitting the mean residue ellipticity to a two-state model (Org Lett 8:4735-4738 (2006)). To measure the refolding kinetics, CMP solution was thermally denatured at 75° C. for 10 minutes in a cuvette and rapidly quenched to 25° C. in an ice-water bath, after which the CD signal at 225 nm was observed over time at 25° C. The CD spectra of intact and MMP-1 cleaved type I collagen (FIG. 12) was measured in 90 μg/mL protein solutions in 20 mM acetic acid buffer at 22° C. The 37° C. thermal stability profile (FIG. 2E, inset) was generated by monitoring the ellipticity at 222 nm immediately after transferring the cuvette to a temperature controlled cuvette holder pre-set to 37° C. The Tm values reported in this study are approximately 10° C. higher than the equilibrium Tm due to high heating rate (60° C./hr) (Biopolymers 73:682-688 (2004)).
Synthesis of fluorescently labeled collagen mimetic peptides. Non-caged CMPs were synthesized using Fmoc-mediated solid-phase chemistry by manual or automated synthesis as described previously.2,4 The caged NB(GPO)9 (SEQ ID NO: 12) was prepared by introducing Fmoc(N-o-nitrobenzyl)Gly-OH (synthesized according to Tatsu et al. 2,5) in the middle of the standard solid-phase peptide synthesis. The Hyp residue following the NBGly was conjugated using 9 molar equiv of Fmoc-Hyp(tBu)-OH, 8.8 molar equiv of PyBroP, and 20 molar equiv of DIPEA for over 24 hr to overcome the low reactivity caused by the steric hindrance of the NB cage group. The remaining sequence including the GGG spacer was completed by HBTU chemistry, followed by on-resin labeling with 6 molar equivalent of CF or TAMRA activated by 6 molar equivalent of PyAOP for over 24 hr. The full length fluorescent CMPs were cleaved from resin by treating the resin with TFA/TIS/H2O (95:2.5:2.5) for 3 hr and the cleaved peptide was purified by reverse phase HPLC on a Vydac C18 column using a linear gradient mixture of water (0.1% TFA) and acetonitrile (0.1% TFA) (5-45% acetonitrile gradient in 40 min). The purified peptides were analyzed by MALDI-TOF MS (FIG. 27): m/z calculated 2975.1 [M+Na+] for CF(GPO)9 (SEQ ID NO: 10), found 2975.0 [M+Na+]; m/z calculated 2975.1 [M+Na+] for ^SG9P9O9 (SEQ ID NO: 5), found 2973.5 [M+Na+]; m/z calculated 3110.2 [M+Na+] for CF^NB(GPO)9 (SEQ ID NO: 4), found 3109.4 [M+Na+]; m/z calculated 2975.1 [M+Na+] for CF(GPO)9 (SEQ ID NO: 10) [CF^NB(GPO)9 (SEQ ID NO: 4) after UV decaging], found 2974.1 [M+Na+]; m/z calculated 3142.3 [M+H+] for TAMRA-NB(GPO)9 (SEQ ID NO: 12), found 3141.4 [M+H+]; m/z calculated 3007.2 [M+H+] for TAMRA-(GPO)9 (SEQ ID NO: 15), [TAMRA-NB(GPO)9 (SEQ ID NO: 12) after decaging], found 3006.3 [M+H+]. CD spectra and CD melting curves of the labeled CMPs were acquired in PBS solutions using a JASCO 715 CD spectrophotometer. The solutions were incubated for at least 24 hours at 4° C. prior to CD experiment to ensure folding (FIG. 28).

binding (fluorescence intensity of film) ([1]; caged, UV−) | Tm (CD melting curve, triple helix) ([3]; after UV exposure (photo-decaged), heating rate 60° C./hr, Tm about 10° C. higher than equilibrium Tm) [°C] | Substance | collagen binding with and without UV exposure ([1]; 4° C., intact type I collagen films) | binding affinity to gelatin (fluorescence level) [2] | triple helical folding capacity (CD melting) ([3]; after UV exposure / photo-cleavage of NB cage) | triple helical folding capacity (CD melting) ([3]; caged, before UV exposure) | CMP binding lower by a factor of, compared to UV-triggered binding of CF^NB(GPO)9 ([1]; non-caged, triple helical, with UV exposure, 4° C.) | heat-induced binding level compared to photo-triggered caged CF^NB(GPO)9 ([1]; thermally melted at 75° C., non-caged) | melting temperature (Tm), CD melting curve ([3]; non-caged peptide in PBS, CD at 225 nm, 1° C./min heating rate) [°C] | triple helical folding capacity (CD melting) ([3]; sequence-scrambled peptide)
negligible | 75 | CF-GGG-(GPO)4^NBGPO(GPO)4 [CF^NB(GPO)9] | collagen binding was observed only after exposing the sample to UV light | confirmed for both type I and type II gelatin | regain its full triple helical folding capacity | completely suppressed the CMP's ability to fold into a triple helix |  |  |  | 
 |  | CF-GGG-(GPO)9 [CF(GPO)9] |  |  |  |  | 11 | significantly elevated binding levels; also recorded: significantly higher binding level | 75 | 
 |  | CF-GGG-PGOGPGPOPOGOGOPPGOOPGGOOPPG [CF^SG9P9O9, reference compound] |  | negligible affinity to gelatin |  |  |  |  |  | lack of triple helical structure
